# Tests used:
# [1] = system: interleukin-8 (IL-8) production by HaCaT keratinocytes; test: IL-8 ELISA on culture supernatant of keratinocytes; type: cell-based
# Protocol: Following an overnight coating of a flat-bottomed 96 well plate with an anti-IL-8 antibody, a 9-point IL-8 standard curve was generated using serial dilutions from a 2000 pg/ml IL-8 stock solution. These were cultured on the 96 well plate for 2 h along side culture supernatants derived from keratinocytes exposed to sugars. The plate was then washed and incubated for 2 h with an anti-IL-8 biotin-antibody before the plate was again washed and left for 20 min with a solution of streptavidin-HRP. After a final wash the plate was coated with a solution of tetramethyl benzidine forming a blue reaction product, the intensity of which relates to amount of IL-8 present in the original culture supernatant. This reaction was stopped using sulphuric acid turning the solution yellow which was then read on a microplate reader at […]. Unknown sample concentrations of IL-8 were determined using the standard curve.
# [2] = system: melanin in ex-vivo human skin; test: Masson Fontana melanin staining of ex-vivo human skin in organ culture; type: cell-based
# Protocol: Samples of full thickness ex-vivo human skin were obtained from elective plastic surgery procedures. […] Two concentrations of the NDO melibiose, 1.5 and 3.0% (w/v) were tested for their ability to reduce skin pigmentation by addition to the medium surrounding the cultured skin samples at day 1 and every time the medium was changed thereafter. As a control some skin samples were cultured under identical conditions apart from the […] of melibiose.
# At day 6, the skin samples were immersed in cryo-embedding medium and 5 μm sections cut and stained using the Masson Fontana assay. The principle of the Masson Fontana assay is that melanin granules reduce silver from ammoniacal silver nitrate solution to a visible metallic state. Information on the protocol for the Masson-Fontana Assay may be found in relevant laboratory handbooks, for example Lille RD, 1965, Histopathologic Technique and Practical Histochemistry, 3rd Ed 1965, the Blakiston Division, McGraw Hill Book Company, p 240, which is incorporated herein by reference.
# Following the fixation of cryosections of skin with ethanol/acetic acid, slides were heated in 0.5% ammoniacal silver nitrate solution using a microwave. Sections were then toned in 1% gold chloride, fixed in 5% sodium thiosulphate and counterstained with haematoxylin before mounting using DPEX. Melanin stain can then be visualised using light microscopy.
# Samples of full thickness ex-vivo human skin were obtained as described in Example 1 and were maintained in organ culture for 6 days. Two concentrations of the NDO melibiose, 25 mM and 50 mM, and two concentration of the NDO P95 (a 95% mixture of oligofructose, also known as fructooligosaccharides (FOS)), 25 mM and 50 mM, were tested for their ability to reduce skin pigmentation by addition to the medium surrounding the cultured skin samples at day 1 and every time the medium was changed thereafter. As a control some skin samples were cultured under identical conditions apart from the absence of NDO. […]
smiles,measurement,setting,value
OC[C@H]1O[C@H](OCC2O[C@@H](O)[C@H](O)[C@@H](O)[C@@H]2O)[C@H](O)[C@@H](O)[C@H]1O (some centres unmarked) [melibiose],constitutive (baseline) IL-8 secretion,"[1]; HaCaT keratinocytes, unstimulated, FIG. 4a",mildly dose-responsive suppression
same,IL-8 secretion in response to IL-1β stimulation,"[1]; keratinocytes stimulated with IL-1β, 5% melibiose, FIG. 4b",reduced to nearly control levels
same,"reduction in melanin staining (mean density, image analysis) in treated skin vs control","[2]; Example 1, ex-vivo human skin, 6 days culture, 25 mM or 50 mM melibiose, FIG. 2b",approximately 10%
same,"melanin in stained skin sections, treated vs untreated control","[2]; Example 1, full thickness ex-vivo human skin, 6 days organ culture, melibiose 1.5 and 3.0% (w/v) in medium, FIG. 2a",significant reduction in melanin
same,"mean density of melanin staining, treated skin vs control","[2]; Example 2, ex-vivo human skin, 6 days organ culture, 25 mM or 50 mM NDO in medium, FIG. 3",reduction in melanin staining

# — patent US10159635B2, “Cosmetic and pharmaceutical uses of saccharides” (CURAPEL (SCOTLAND) LIMITED, priority 2012, dated 2018)
